# Experimental data published in the supplement of paper PMC11962398.
# Assays:
# [1] = compound: T1, C[C@H]1CNCCN1c1nccc(-c2noc3c2CCC[C@@]32CCCc3sc(N)c(C#N)c32)n1 [BI-2493]; settings: 5 days
# Procedure: (§1)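 PRISM pooled barcoded cancer cell line viability screen (Broad Institute) with BI-2493 at 8 doses in threefold dilutions from 0.00457 to 10 µmol/L, 5-day treatment; curves fitted per cell line. IC50 is undefined (placeholder) for resistant lines. AUC is capped at 1, and sensitivity is reported as 1 − AUC.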
# [2] = compound: T1, BI-2493; test: 1 - AUC of viability dose-response curve (sensitivity) (fraction); higher = more sensitive; settings: 5 days
# Procedure: as §1
Test System,IC50 of cell viability [1] [µM],1 - AUC of viability dose-response curve [2]
TE10_OESOPHAGUS,> 10,0.146
SMSCTR_SOFT_TISSUE,> 10,0.0341
HT3_CERVIX,5.97,0.17
KYSE150_OESOPHAGUS,3.68,0.131
TUHR4TKB_KIDNEY,3.62,0.123
NCIH2087_LUNG,3.99,0.104
BEN_LUNG,1.62,0.264
AMO1_HAEMATOPOIETIC_AND_LYMPHOID_TISSUE,5.6,0.088
HCC1954_BREAST,5.1,0.0754
253J_URINARY_TRACT,4.76,0.0834
KURAMOCHI_OVARY,> 10,0.129
MC116_HAEMATOPOIETIC_AND_LYMPHOID_TISSUE,5.28,0.0718
SW1353_BONE,> 10,0.032
LUDLU1_LUNG,4.54,0.143
KU1919_URINARY_TRACT,9.28,0.0267
YH13_CENTRAL_NERVOUS_SYSTEM,> 10,0.0914
NCIH1339_LUNG,6.82,0.0455
SF295_CENTRAL_NERVOUS_SYSTEM,9.02,0.0199
MKN74_STOMACH,7.22,0.117

Test System,IC50 of cell viability [1] [µM],1 - AUC of viability dose-response curve [2]
SKNBE2_AUTONOMIC_GANGLIA,4.48,0.206
CALU6_LUNG,9.77,0.00583
SKMEL30_SKIN,9.15,0.0152
HH_HAEMATOPOIETIC_AND_LYMPHOID_TISSUE,5.02,0.0743
RCHACV_HAEMATOPOIETIC_AND_LYMPHOID_TISSUE,4.98,0.198
SCC9_UPPER_AERODIGESTIVE_TRACT,6.27,0.11
KMS12BM_HAEMATOPOIETIC_AND_LYMPHOID_TISSUE,3.71,0.108
IALM_LUNG,1.56,0.317
RCM1_LARGE_INTESTINE,1.73,0.271
NCIH1355_LUNG,2.46,0.219
TE6_OESOPHAGUS,4.43,0.0969
RPMI7951_SKIN,6.06,0.0692
OE19_OESOPHAGUS,4.24,0.168
HSC1_SKIN,4.81,0.111
CAOV3_OVARY,> 10,0.0615
A549_LUNG,2.17,0.207
BFTC905_URINARY_TRACT,6.41,0.114
SW1710_URINARY_TRACT,7.21,0.0685
BICR31_UPPER_AERODIGESTIVE_TRACT,6.97,0.0764
